Laboratory results from ChEMBL document CHEMBL4130413, “1-Aryl-1H- and 2-aryl-2H-1,2,3-triazole derivatives blockade P2X7 receptor in vitro and inflammatory response in vivo” (Eur J Med Chem, 2017).
The source made the active and inactive calls. No cut-off for these calls is given here.

Assays:
[1] = system: Peritoneal macrophage; assay: Toxicity in Swiss mouse peritoneal macrophages assessed as LDH release at 750 nM after 60 mins relative to 0.05% Triton X-100; type: cell-based; conditions: 1 h, 0.75 µM
[2] = target: T1, P2X purinoceptor 7 (Mus musculus, UniProt Q9Z1M0); assay: Antagonist activity at P2X7 receptor in Swiss mouse peritoneal macrophages assessed as inhibition of ATP-induced current at holding potential of -60 mV preincubated for 5 mins followed by ATP addition measured after 5 mins by Whole cell patch-clamp analysis
T1 sequence (Q9Z1M0 whole entry): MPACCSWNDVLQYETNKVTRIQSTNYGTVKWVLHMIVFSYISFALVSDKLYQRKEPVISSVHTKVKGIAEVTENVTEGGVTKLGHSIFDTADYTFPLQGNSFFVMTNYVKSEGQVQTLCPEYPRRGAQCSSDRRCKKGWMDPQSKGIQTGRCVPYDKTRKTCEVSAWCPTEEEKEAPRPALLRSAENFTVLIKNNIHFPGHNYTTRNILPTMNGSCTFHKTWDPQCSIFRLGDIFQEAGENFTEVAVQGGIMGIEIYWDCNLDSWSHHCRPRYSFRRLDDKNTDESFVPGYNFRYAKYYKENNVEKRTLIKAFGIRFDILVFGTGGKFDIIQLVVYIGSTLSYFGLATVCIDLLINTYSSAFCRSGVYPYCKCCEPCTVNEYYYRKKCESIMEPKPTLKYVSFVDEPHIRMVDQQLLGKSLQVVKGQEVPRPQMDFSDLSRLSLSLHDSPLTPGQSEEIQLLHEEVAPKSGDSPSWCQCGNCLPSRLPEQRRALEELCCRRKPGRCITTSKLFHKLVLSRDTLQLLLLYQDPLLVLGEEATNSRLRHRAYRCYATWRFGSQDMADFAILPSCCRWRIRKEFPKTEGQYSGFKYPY

[3] = target: T2, P2X purinoceptor 7 (Homo sapiens, UniProt Q99572); assay: Antagonist activity at human P2X7 receptor expressed in HEK293 cells assessed as inhibition of ATP-induced ethidium iodide uptake preincubated for 10 mins followed by ATP addition measured after 20 mins by spectrofluorometric analysis; type: cell-based
T2 sequence (Q99572 whole entry): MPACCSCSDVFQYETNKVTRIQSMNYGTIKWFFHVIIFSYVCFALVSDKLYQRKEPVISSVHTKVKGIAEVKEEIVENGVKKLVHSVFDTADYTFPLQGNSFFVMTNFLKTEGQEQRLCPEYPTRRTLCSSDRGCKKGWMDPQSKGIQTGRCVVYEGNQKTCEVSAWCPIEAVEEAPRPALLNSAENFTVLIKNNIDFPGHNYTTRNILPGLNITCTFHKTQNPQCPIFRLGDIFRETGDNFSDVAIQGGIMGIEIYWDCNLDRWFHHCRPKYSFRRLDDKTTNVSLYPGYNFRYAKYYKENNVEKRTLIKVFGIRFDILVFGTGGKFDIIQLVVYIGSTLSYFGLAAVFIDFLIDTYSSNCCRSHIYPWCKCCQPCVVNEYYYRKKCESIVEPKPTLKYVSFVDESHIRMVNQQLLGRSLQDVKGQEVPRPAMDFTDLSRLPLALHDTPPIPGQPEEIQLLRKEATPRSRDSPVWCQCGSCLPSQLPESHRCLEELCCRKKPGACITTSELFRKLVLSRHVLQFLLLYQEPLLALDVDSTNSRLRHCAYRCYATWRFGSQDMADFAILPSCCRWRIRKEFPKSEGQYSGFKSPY

[4] = target: T3, P2X purinoceptor 7 (Homo sapiens) (UniProt Q99572); assay: Antagonist activity at human P2X7 receptor expressed in HEK293 cells assessed as inhibition of ATP-induced ethidium iodide uptake at 750 nM preincubated for 10 mins followed by ATP addition measured after 20 mins by FLIPR assay relative to 1 mM ATP; type: cell-based
T3 sequence (whole entry): T2 sequence (Q99572 whole entry)

[5] = target: T1, P2X purinoceptor 7; assay: Antagonist activity at P2X7 receptor in Swiss mouse peritoneal macrophages assessed as inhibition of BzATP-induced current at holding potential of -60 mV preincubated for 5 mins followed by BzATP addition measured after 5 mins by Whole cell patch-clamp analysis
[6] = target: T1, P2X purinoceptor 7; assay: Antagonist activity at P2X7 receptor in Swiss mouse peritoneal macrophages assessed as inhibition of BzATP-induced ethidium iodide uptake after 30 mins by spectrofluorometric analysis
[7] = target: P2X purinoceptor 7 (Mus musculus) (UniProt Q9Z1M0); assay: Antagonist activity at P2X7 receptor in Swiss mouse peritoneal macrophages assessed as inhibition of ATP-induced propidium iodide uptake at 750 nM after 30 mins by FLIPR assay relative to 1 mM ATP
[8] = target: T4, P2X purinoceptor 7 (Mus musculus) (UniProt Q9Z1M0); assay: (§1) Antagonist activity at P2X7 receptor in Swiss mouse peritoneal macrophages assessed as inhibition of ATP-induced propidium iodide uptake after 25 mins by flow cytometric analysis
T4 sequence (whole entry): T1 sequence (Q9Z1M0 whole entry)

[9] = target: T1, P2X purinoceptor 7; assay: as §1
[10] = Cytotoxicity against Swiss mouse peritoneal macrophages after 24 hrs by LDH-release assay; type: cell-based, Peritoneal macrophage
[11] = target: T4, P2X purinoceptor 7 (Mus musculus); assay: Antagonist activity at mouse P2X7 receptor expressed in HEK293 cells assessed as inhibition of ATP-induced ethidium iodide uptake at 10 uM preincubated for 10 mins followed by ATP addition measured after 20 mins by FLIPR assay relative to 1 mM ATP; type: cell-based
[12] = target: T3, P2X purinoceptor 7 (Homo sapiens); assay: Antagonist activity at human P2X7 receptor expressed in HEK293 cells assessed as inhibition of ATP-induced ethidium iodide uptake at 10 uM preincubated for 10 mins followed by ATP addition measured after 20 mins by FLIPR assay relative to 1 mM ATP; type: cell-based
[13] = system: Peritoneal macrophage; assay: Toxicity in Swiss mouse peritoneal macrophages assessed as LDH release at 10 uM after 60 mins relative to 0.05% Triton X-100; type: cell-based; conditions: 1 h
[14] = target: P2X purinoceptor 7 (Mus musculus) (UniProt Q9Z1M0); assay: Antagonist activity at P2X7 receptor in Swiss mouse peritoneal macrophages assessed as inhibition of ATP-induced propidium iodide uptake at 10 uM after 30 mins by FLIPR assay relative to 1 mM ATP
[15] = target: T2, P2X purinoceptor 7; assay: Antagonist activity at human P2X7 receptor expressed in human 1321N1 cells assessed as reduction in agonist-induced intracellular Ca2+ levels preincubated for 3 mins followed by agonist addition measured up to 2 mins by Fluo-4 dye-based FLIPR assay; type: cell-based
[16] = target: T2, P2X purinoceptor 7; assay: Antagonist activity at human P2X7 receptor expressed in human THP1 cells assessed as reduction in BzATP-induced IL-1beta levels preincubated for 30 mins followed by BzATP addition measured after 30 mins by ELISA; type: cell-based
[17] = target: T1, P2X purinoceptor 7; assay: Antagonist activity at mouse P2X7 receptor expressed in human 1321N1 cells assessed as reduction in agonist-induced intracellular Ca2+ levels preincubated for 3 mins followed by agonist addition measured up to 2 mins by Fluo-4 dye-based FLIPR assay; type: cell-based
[18] = target: T2, P2X purinoceptor 7; assay: Antagonist activity at human P2X7 receptor expressed in human THP1 cells assessed as reduction in BzATP-induced pore formation by measuring YO-PRO uptake by FLIPR assay; type: cell-based
[19] = target: P2X purinoceptor 7 (Rattus norvegicus, UniProt Q64663); assay: Antagonist activity at rat P2X7 receptor expressed in human 1321N1 cells assessed as reduction in agonist-induced intracellular Ca2+ levels preincubated for 3 mins followed by agonist addition measured up to 2 mins by Fluo-4 dye-based FLIPR assay; type: cell-based
[20] = target: T2, P2X purinoceptor 7; assay: Antagonist activity at human P2X7 receptor in PMA-differentiated THP-1 macrophages assessed as inhibition of ATP-induced IL-1beta release preincubated for 30 mins followed by ATP addition measured after 30 mins by ELISA
[21] = system: Mus musculus; assay: Anti-inflammatory activity in ip dosed Swiss Webster mouse assessed as inhibition of carrageenan-induced paw edema pretreated for 60 mins followed by carrageenan administration and measured after 30 mins; type: functional
[22] = system: Mus musculus; assay: Anti-inflammatory activity in po dosed Swiss Webster mouse assessed as inhibition of carrageenan-induced paw edema pretreated for 60 mins followed by carrageenan administration and measured after 60 mins; type: functional
[23] = system: Mus musculus; assay: Anti-inflammatory activity in ip dosed Swiss Webster mouse assessed as inhibition of ATP-induced paw edema pretreated for 60 mins followed by ATP administration and measured after 30 mins; type: functional
[24] = target: T1, P2X purinoceptor 7; assay: Antagonist activity at P2X7 receptor in LPS/IFNc-differentiated Swiss mouse peritoneal macrophages assessed as inhibition of ATP-induced IL-1beta release preincubated for 30 mins followed by LPS stimulation for 4 hrs using cells treated with ATP for 30 mins by ELISA
[25] = system: Mus musculus; assay: Anti-inflammatory activity in po dosed Swiss Webster mouse assessed as inhibition of ATP-induced paw edema pretreated for 60 mins followed by ATP administration and measured after 30 mins; type: functional

P2X purinoceptor 7 (Rattus norvegicus, UniProt Q64663), sequence (Q64663 whole entry): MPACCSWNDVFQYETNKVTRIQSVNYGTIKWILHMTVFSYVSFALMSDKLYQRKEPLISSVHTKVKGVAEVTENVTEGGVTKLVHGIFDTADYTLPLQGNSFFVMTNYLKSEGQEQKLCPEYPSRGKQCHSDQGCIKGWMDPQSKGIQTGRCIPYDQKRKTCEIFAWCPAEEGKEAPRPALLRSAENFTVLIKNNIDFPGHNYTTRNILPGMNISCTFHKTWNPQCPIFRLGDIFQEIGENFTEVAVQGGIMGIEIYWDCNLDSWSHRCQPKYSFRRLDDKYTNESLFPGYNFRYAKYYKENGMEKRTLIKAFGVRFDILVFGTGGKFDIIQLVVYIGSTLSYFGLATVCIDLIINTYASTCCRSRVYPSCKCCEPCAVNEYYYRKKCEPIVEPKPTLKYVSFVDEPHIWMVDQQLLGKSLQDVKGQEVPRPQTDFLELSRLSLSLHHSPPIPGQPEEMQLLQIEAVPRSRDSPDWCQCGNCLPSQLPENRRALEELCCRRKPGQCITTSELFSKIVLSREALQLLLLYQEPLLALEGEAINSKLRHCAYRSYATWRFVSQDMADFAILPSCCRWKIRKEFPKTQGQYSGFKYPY

Compound | IC50 [2] | IC50 [3] | inhibition [8] | IC50 [9] | inhibition [12] | Activity [13] | inhibition [14] | other results
CCOc1ccc(Nc2ccc(/C(=C3C=C/C(=[N+](/CC)Cc4cccc(S(=O)(=O)[O-])c4)C=C/3C)c3ccc(N(CC)Cc4cccc(S(=O)(=O)[O-])c4)cc3C)cc2)cc1.[Na+] [BRILLIANT BLUE G] | 109 nM | 552 nM | Dose-dependent effect | 343 nM |  |  |  | Activity [1]: 13.22%; inhibition [4]: 90.1%; IC50 [5]: 407 nM; IC50 [6]: 432 nM; inhibition [7]: 78.9%
OCc1cnn(-c2ccccc2)n1 | 81 nM | 522 nM | Dose-dependent effect | 96 nM | 90.2% | 9.18% | 84.2% | CC50 at 24 h [10]: 2360 nM; inhibition [11]: Active
CCCCOCc1cn(-c2cc(Cl)ccc2Cl)nn1 | 316 nM | 621 nM | Dose-dependent effect | 317 nM | 90.1% | 11.66% | 79.8% | CC50 at 24 h [10]: 505 nM
CCCCCCCCCC(=O)OCc1cn(-c2ccc(Cl)cc2)nn1 | 103 nM | 108 nM | Dose-dependent effect | 107 nM | 78% | 8% | 76% | CC50 at 24 h [10]: 2840 nM
O/N=C/c1cnn(-c2ccccc2)n1 | 457 nM | 897 nM | Dose-dependent effect | 349 nM | 94.3% | 12.66% | 83% | CC50 at 24 h [10]: 250 nM; inhibition [11]: Active
CCOCc1cnn(-c2ccccc2)n1 |  |  |  |  | 79.1% | 26.49% | 70% | inhibition [11]: Active
Clc1cccc(-n2nnnc2NCc2ccccc2Oc2ccccn2)c1Cl |  |  |  |  |  |  |  | IC50 [15]: 20 to 150 nM; IC50 [16]: 37.2 nM; IC50 [17]: 20 to 150 nM; IC50 [18]: 6.61 nM; IC50 [19]: 20 to 150 nM
O=Cc1cn(-c2ccccc2)nn1 | 103 nM | 478 nM | Dose-dependent effect | 167 nM | 95.3% | 10.51% | 84.6% | CC50 at 24 h [10]: 3740 nM; inhibition [11]: Active
CCCCOCc1cn(-c2ccccc2)nn1 |  |  |  |  | 67.5% | 32.33% | 78.1% | inhibition [11]: Active
COc1ccc(-n2cc(CO)nn2)cc1 | 341 nM | 932 nM | Dose-dependent effect | 488 nM | 94.1% | 9.7% | 86.3% | CC50 at 24 h [10]: 363 nM; inhibition [11]: Active
COc1ccc(CC(=O)NC(N/C(=N/C#N)Nc2cccc3ncccc23)C(C)(C)C)cc1OC (stereo unspecified) |  | 86 nM |  |  |  |  |  | IC50 [20]: 82 nM; ID50 [21]: 0.1423 µg/kg; ID50 [22]: 0.119 µg/kg; ID50 [23]: 0.1058 µg/kg; IC50 [5]: 46.9 nM; IC50 [6]: 63.3 nM; IC50 [24]: 112 nM; ID50 [25]: 0.1097 µg/kg
CCCOCc1cn(-c2ccccc2)nn1 |  |  |  |  | 20.1% | 14.66% | 25.1% | 
O/N=C/c1cn(-c2ccccc2)nn1 |  |  |  |  | 64.3% | 28.59% | 58% | 
CCCCCC(=O)OCc1cn(-c2ccccc2)nn1 |  |  |  |  | 18.2% | 15.83% | 44.6% | 
CCCOCc1cnn(-c2ccccc2)n1 |  |  |  |  | 41.2% | 13.33% | 26.6% | 
CCOCc1cn(-c2cc(Cl)cc(Cl)c2)nn1 |  |  |  |  | 51.2% | 34% | 36.5% | 
COc1ccc(-n2cc(C=O)nn2)cc1 |  |  |  |  | 50.3% | 17.92% | 44.3% | 
CC(=O)OCc1cn(-c2cc(Cl)ccc2Cl)nn1 |  |  |  |  | 71.2% | 32% | 76.6% | 
O=C(OCc1cn(-c2cc(Cl)ccc2Cl)nn1)c1ccccc1 |  |  |  |  | 3% | 26.66% | 11% | 
CCCCOCc1cnn(-c2ccccc2)n1 |  |  |  |  | 16.1% | 27.19% | 37.1% | 
COc1ccc(-n2cc(COC(C)=O)nn2)cc1 |  |  |  |  | 9.12% | 15% | 29.4% | 
CCCCCC(=O)OCc1cn(-c2ccc(Cl)cc2)nn1 |  |  |  |  | 2.2% | 34.19% | 11.1% | 
